Source: US20250345446A1 (Draupnir Bio ApS, priority 2022, published 2025)
Like-named read-outs stand apart in the source and are kept apart here. One block for each molecule: values may come before it. Residues, ends and D or L forms follow the SMILES beside them. *: point of attachment. Biotin = O=C1N[C@H]2[C@H](CS[C@H]2CCCCC(=O)*)N1

Tests used:
HEK293/sortilin cells [1] = assay: Lysosomal sorting and degradation of NA650 (microscopy, blotted lysates, leupeptin); format: cell-based; settings: NA650 100 nM
Method: Cellular uptake of target NA650 was analyzed with fluorescence microscopy. For this assay, coverslips in 4 well plates were coated with poly-L lysine prior to seeding of HEK293/sortilin cells (25K cells/coverslip) in culture media (as described in Example 3)) and incubated overnight in cell incubator (37° C., humidified, 5% CO2). The culture media was replaced with assay media (as described in Example 3) containing NA650 (Invitrogen) (500 nM) (Thermo Fischer), a compound according to SEQ ID NO.: 147 (2 μM) and AF38469 (100 μM, MedChemExpress). The cells were incubated in a cell incubator for 4 hours before washing in dPBS (Bionordika) followed by fixation with dPBS+4% PFA (Sigma Aldrich) for 15 minutes. […] The fluorescent signal was analyzed using a laser scanning confocal microscope (LSM-800). […]
Culture medium was replaced with assay medium (DMEM (Lonza), 10% fetal bovine serum (Sigma Aldrich), 1% penicillin-streptomycin (Sigma Aldrich), 1% GlutaMAX (Gibco)) with or without NA650 (Invitrogen) (100 nM) (Thermo Fischer), peptidic bifunctional compound (300 nM) and leupeptin (80 μM) (Sigma Aldrich). […] Proteins were blotted onto a nitrocellulose membrane (Thermo Fisher), and the DyLight650 signal was detected using an iBright 1500 (Thermo Fisher). […]

[2] = molecular target: T1, soluble ectodomain of sortilin-6his (Homo sapiens, UniProt Q99523, V650M); assay: MST binding to soluble ectodomain of sortilin-6his
T1 construct: the soluble ectodomain of sortilin-6his is measured by microscale thermophoresis (MST)
T1 sequence (Q99523 with tags, fused parts or gaps V650M): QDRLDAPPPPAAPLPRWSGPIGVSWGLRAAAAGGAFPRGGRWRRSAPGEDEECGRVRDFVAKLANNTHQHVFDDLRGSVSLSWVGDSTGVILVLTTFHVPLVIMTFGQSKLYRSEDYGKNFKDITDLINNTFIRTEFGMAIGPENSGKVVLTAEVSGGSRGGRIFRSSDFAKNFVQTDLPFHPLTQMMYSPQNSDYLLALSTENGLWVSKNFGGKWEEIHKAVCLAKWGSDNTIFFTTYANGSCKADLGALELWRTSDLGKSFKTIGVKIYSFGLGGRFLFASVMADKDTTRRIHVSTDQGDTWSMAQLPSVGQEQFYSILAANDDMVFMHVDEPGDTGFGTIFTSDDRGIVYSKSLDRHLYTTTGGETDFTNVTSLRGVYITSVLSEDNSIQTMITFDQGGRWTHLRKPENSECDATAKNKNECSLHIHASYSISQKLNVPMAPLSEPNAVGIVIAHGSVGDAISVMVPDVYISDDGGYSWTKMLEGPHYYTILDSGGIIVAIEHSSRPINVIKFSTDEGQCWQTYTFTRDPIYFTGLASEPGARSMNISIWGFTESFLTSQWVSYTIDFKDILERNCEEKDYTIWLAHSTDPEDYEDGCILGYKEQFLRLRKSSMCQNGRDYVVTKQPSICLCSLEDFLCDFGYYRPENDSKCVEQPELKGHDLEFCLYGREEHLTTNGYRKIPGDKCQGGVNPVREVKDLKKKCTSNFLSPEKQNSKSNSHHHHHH

[3] = system: HEK293 cells expressing full length sortilin receptor; assay: Cellular uptake of AlexaFluor488-anti-DNP antibody; format: cell-based; settings: Table 7; AlexaFluor488-anti-DNP antibody (100 nM), 3 h, DNP warhead compounds
Text: In this example, the small molecule degraders consist of a sortilin binder linked to warhead DNP to target anti-DNP antibodies (BF001 to BF016)
Cellular uptake of AlexaFluor488-anti-DNP antibody (Thermo Fisher) was investigated in HEK293 cells expressing full length sortilin receptor in a methodology analogous to example 3.

[4] = system: untransfected HEK239 cells; assay: Cellular uptake of target in untransfected HEK293 cells (Example 22); format: cell-based; settings: HEK293 cells without sortilin, 3 h, 2 nM to 2 μM, corresponding targets
HEK293/sortilin cells [5] = assay: Remaining TNFalpha in conditioned media (ELISA); format: cell-based; settings: after 72 h, 20 nM TNFalpha; added TNFalpha (100%) subtracted remaining TNFalpha (%)
Method: In different experiments, HEK293/sortilin cells were incubated with compound gradient series and 20 nM TNFalpha for up to 72 h. Following incubation, remaining TNFalpha in conditioned media was evaluated using human TNF-alpha Quantikine ELISA Kit (R&D systems, DTA00D).

[6] = system: HEK293 cells expressing full length sortilin receptor; assay: Cellular uptake of NA650 in HEK293/sortilin cells; format: cell-based; settings: 3 h incubation, 9.8 nM to 10 μM, NA650 100 nM
Method: Cellular uptake of NA650 was investigated in HEK293 cells expressing full length sortilin receptor (Petersen et. al.). Cells were seeded in poly-L-lysine coated 96-well plates (Perkin Elmer) (40K/well) in 50 μL culture medium (DMEM (Lonza)+10% FBS (SigmaAldrich)+1% penicillin-streptomycin (SigmaAldrich)+1% GlutaMAX (Gibco)+100 μg/mL Zeocin (Invitrogen)) and incubated overnight in cell incubator (37° C., humidified, 5% CO2).
Culture medium was replaced with assay medium (DMEM (Lonza)+10% fetal bovine serum (SigmaAldrich)+1% penicillin-streptomycin (SigmaAldrich)+1% GlutaMAX (Gibco)) containing NA650 (Invitrogen) (100 nM) (Thermo Fischer) and peptidic bifunctional compounds (9.8 nM to 10 μM). Cells were incubated for 3 h in cell incubator before they were washed in dPBS (Bionordika). The DyLight650 signal in the cell layer was detected using a fluorescence plate reader (BMG Labtech Clariostar).
Cellular uptake of NA650 was investigated in HEK293 cells expressing full length sortilin receptor using a methodology analogous to example 3.

HEK293/sortilin cells [7] = assay: Depletion of NA650 from cell culture supernatant; format: cell-based; settings: for reduction in NA650 signal in cell culture supernatant: single addition, NA650 100 nM
Method: HEK293/sortilin cells were cultured in culture media containing DMEM (Lonza) further supplemented with 10% fetal bovine serum (Sigma), 1% GlutaMax Supplement (Gibco), penicillin-streptomycin (Thermo Fischer) and selection antibiotics 100 μg/mL Zeocin (Invitrogen). 35k cells/well were seeded in poly-L-lysine coated 96-well plates (Perkin Elmer) and allowed to incubate for 16-24 h in cell incubator (37° C., humidified, 5% CO2). Culture media were discarded, and the cells were washed with assay medium containing FluoroBright DMEM (Gibco) supplemented with 10% fetal bovine serum (Sigma) and 1% GlutaMax Supplement (Gibco). The media were discarded and replaced with assay media or assay medium containing 100 nM NA650 (Invitrogen). For wells evaluating the bifunctional compounds, the assay medium also contained concentrations ranging from 20 nM to 5 μM. After an incubation period of up to 72 h in the cell incubator the media were harvested and the presence of NA650 were evaluated by fluorescence intensity (FI) measurements of DyLight650 using a fluorescence plate reader (BMG Labtech Clariostar).
HEK293/sortilin cells (35k cells/96-well) were seeded in culture media (as described in Example 3) and incubated for 24 h in cell incubator. Culture media were discarded, and the cells were washed with assay medium containing FluoroBright DMEM (Gibco) and supplements as described in Example 3, before incubation in assay medium containing 100 nM NA650 and small molecule bifunctional compounds (20 nM to 5 μM). After an incubation period of up to 72 h, the media were harvested and the presence of NA650 were evaluated by FI measurements of DyLight650 using a fluorescence plate reader (BMG Labtech Clariostar).

[8] = molecular target: streptavidin, bifunctional compound and sortilin-6his (UniProt P22629+Q99523, V650M); assay: TR-FRET ternary complex formation streptavidin / bifunctional peptide / sortilin-6his; settings: Table 2; […] incubation, HTRF ratio 665/620 nm
[9] = molecular target: Sortilin-6His (Homo sapiens (Human)) (UniProt Q99523); assay: MST on labelled sortilin-6his ectodomain; KD score: +++ <25 nM, ++ 25-250 nM, + 250-2500 nM, 0 >2500 nM
Chain of Sortilin-6His (Homo sapiens (Human)) (Q99523 78-755 V650M limits assumed): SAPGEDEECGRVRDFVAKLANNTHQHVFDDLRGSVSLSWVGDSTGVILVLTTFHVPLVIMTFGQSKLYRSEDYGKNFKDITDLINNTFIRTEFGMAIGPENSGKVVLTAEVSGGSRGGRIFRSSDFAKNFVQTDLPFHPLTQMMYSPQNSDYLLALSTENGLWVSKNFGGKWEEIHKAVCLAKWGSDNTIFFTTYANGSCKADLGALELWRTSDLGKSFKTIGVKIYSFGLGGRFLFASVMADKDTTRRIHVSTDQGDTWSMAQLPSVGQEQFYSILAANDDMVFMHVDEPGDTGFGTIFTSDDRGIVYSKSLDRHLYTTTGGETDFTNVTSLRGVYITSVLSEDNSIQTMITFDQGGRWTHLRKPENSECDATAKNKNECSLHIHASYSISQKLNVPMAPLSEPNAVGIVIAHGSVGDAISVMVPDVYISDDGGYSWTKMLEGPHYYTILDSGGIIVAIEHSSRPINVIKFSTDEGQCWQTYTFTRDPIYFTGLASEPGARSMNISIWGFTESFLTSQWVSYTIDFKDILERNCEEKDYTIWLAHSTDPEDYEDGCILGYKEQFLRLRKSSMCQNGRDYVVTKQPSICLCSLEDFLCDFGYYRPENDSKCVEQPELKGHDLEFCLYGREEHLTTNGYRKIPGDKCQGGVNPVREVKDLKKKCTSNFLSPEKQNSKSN

Sortilin-6His [10] = molecular target: T2, Sortilin-6His (Homo sapiens (Human), UniProt Q99523 78-755); assay: MST, fluorescent sortilin-6his (100 nM), peptide titrated
T2 construct: In MST it was labelled non-covalently with RED-tris-NTA; also called soluble ectodomain of sortilin-6his; fluorescent sortilin-6his
T2 sequence (Q99523 78-755 V650M limits assumed): as above

Sortilin-6His [11] = molecular target: T2, Sortilin-6His; assay: MST on labelled sortilin-6his ectodomain; KD score: ++ <100 nM, + 100-2000 nM
Sortilin-6His [12] = molecular target: T2, Sortilin-6His; assay: TR-FRET (HTRF) ternary complex streptavidin-d2 / biotin-peptide / sortilin-6His; AUC score: + <5000, ++ >5000

Molecule: CC(C)(C)CCC(NC(=O)c1ccc(Oc2cccc(OCCOCCOCCOCCOCCOCCNC(=O)CCCC[C@@H]3SC[C@@H]4NC(=O)N[C@@H]43)c2)nc1)C(=O)O (stereo partly drawn) [B025]
- NA650 band in lysate (HEK293/sortilin cells [1]; 24 h incubation, compound 300 nM): visible in cells incubated with B025 alone

Molecule: CC(C)(C)CC[C@H](NC(=O)c1ccc(Oc2cccc3c(C(=O)NCCCNC(=O)CCOCCOCCOCCNc4ccc([N+](=O)[O-])cc4[N+](=O)[O-])cccc23)nc1)C(=O)O [BF005, (2S)-2-[[6-[5-[3-[3-[2-[2-[2-(2,4-dinitroanilino)ethoxy]ethoxy]ethoxy]propanoylamino]propylcarbamoyl]-1-naphthyl]oxy]pyridine-3-carbonyllamino]-5,5-dimethyl-hexanoic acid]
- Kd [2]: 1 to 10 nM
- AUC score, target internalization [3]: ++ (AUC > 10.000)
- cell associated FI response to increasing degrader concentration [4]: No response

- Kd ([2]; Table 4, small molecule bifunctional compounds, MST, read-out: KD score, binding to sortilin (Kd)): < 1 nM
Molecule: C[C@@H]1CN(c2ncc(-c3ccc4c(n3)N(Cc3cccnc3C#N)C(C)(C)C4=O)cn2)CCN1C(=O)CNC(=O)CCCCCCCCCNC(=O)c1cccc(Oc2ccc(C(=O)N[C@@H](CCC(C)(C)C)C(=O)O)cn2)c1 [BF043, (2S)-2-[[6-[3-[[10-[[2-[(2R)-4-[5-[1-[(2-cyano-3-pyridyl)methyl]-2,2-dimethyl-3-oxo-pyrrolo[2,3-b]pyridin-6-yl]pyrimidin-2-yl]-2-methyl-piperazin-1-yl]-2-oxo-ethyl]amino]-10-oxo-decyl]carbamoyl]phenoxy]pyridine-3-carbonyl]amino]-5,5-dimethyl-hexanoic acid]
- Maximum clearance rates of TNFalpha from conditioned media (HEK293/sortilin cells [5]): 63.3%

Molecule: CC(C)C[C@H](NC(=O)[C@H](CC(C)C)NC(=O)[C@H](CCC(N)=O)NC(=O)[C@H](CCCNC(=N)N)NC(=O)CNC(=O)CNC(=O)[C@H](CO)NC(=O)CNC(=O)CNC(=O)CNC(=O)CNC(=O)[C@H](CO)NC(=O)CNC(=O)CNC(=O)CNC(=O)CNC(=O)[C@H](CO)NC(=O)CNC(=O)CNC(=O)CCCC[C@@H]1SC[C@@H]2NC(=O)N[C@@H]21)C(=O)O [SEQ ID NO.: 147] (Biotin-GGSGGGGSGGGGSGGRQLL-OH)
- Kd ([2]; Table 1, biotin-linker-peptide bifunctional compounds, MST, read-out: KD score, binding to sortilin (Kd)): 100 to 2000 nM
- cell associated FI signal, response to concentration series (in words) [6]: bell-shaped response
- subcellular localization of internalized NA650 (fluorescence microscopy) (HEK293/sortilin cells [1]; 2 h incubation, bifunctional molecule 300 nM, anti-LAMP1 staining): co-localizes with lysosomal marker
- reduction in NA650 signal in cell culture supernatant (HEK293/sortilin cells [7]; after 24 h): 16%
- reduction in NA650 signal in cell culture supernatant (HEK293/sortilin cells [7]; after 48 h): 46%
- reduction in NA650 signal in cell culture supernatant (HEK293/sortilin cells [7]; after 72 h): 61%
- degrader concentration of highest uptake of target (HEK293/sortilin cells [7]; all timepoints (24, 48, 72 h)): 312 nM
- AUC score, TR-FRET measurements of ternary complex formation [8]: ++ (AUC > 5000)

- KD [9]: 25 to 250 nM
Molecule: H-LQLL-OH (as printed in Table 3 for SEQ ID NO.: 30) (peptide)

- Kd (Sortilin-6His [10]): 703 nM
- KD (Sortilin-6His [11]): 100 to 2000 nM
- AUC of TR-FRET (HTRF ratio vs compound concentration) for ternary complex formation (Sortilin-6His [12]): > 5000 auc
B1: Biotin-GGSGGGGSGGGGSGGRQLL-OH (peptide)
peptide: Biotin-GGSGGGGSGGGGSGGRQLL-OH
SMILES: CC(C)C[C@H](NC(=O)[C@H](CC(C)C)NC(=O)[C@H](CCC(N)=O)NC(=O)[C@H](CCCNC(=N)N)NC(=O)CNC(=O)CNC(=O)[C@H](CO)NC(=O)CNC(=O)CNC(=O)CNC(=O)CNC(=O)[C@H](CO)NC(=O)CNC(=O)CNC(=O)CNC(=O)CNC(=O)[C@H](CO)NC(=O)CNC(=O)CNC(=O)CCCC[C@@H]1SC[C@@H]2NC(=O)N[C@@H]21)C(=O)O
notes: also called degrader
